One series concerns porcine SMC. Conditions: Banai et al., 1998; cited from earlier work.
For series [1], the system named is STAT3, Akt, Erk2. The experiment in a line: PDGF-stimulated activation of STAT3, Akt and Erk2 in A10 cells (immunoblotting). The format is cell-based, rat.
The test system of the next series is A10 cells. Nature of the series: Flow cytometric analysis of cell cycle phase distribution, PDGF-treated A10 cells. The format is cell-based, rat. Conditions: PDGF 10 ng/ml plus 50 nM.
The next series has as its target PDGFRβ (Rattus norvegicus, UniProt Q05030). Conditions: A10 cells.
Another series addresses IGF-1R (Rattus norvegicus, UniProt P24062). Conditions: A10 cells, up to 50 nM, IGF-1 10 ng/ml 10 min.
For series [2] the following is noted: cited from earlier work.
In series [3] the test system is STAT3, Akt, Erk2. The experiment in a line: PDGF-stimulated activation of STAT3, Akt and Erk2 in primary human AoSMCs. Conditions: 0-50 nM, not reduced below basal activation state. The format is cell-based.
In a further series the test system is PDGFR. The note with it: Buchdunger et al., 1996; Sanz-Gonzalez et al., 2004; cited from earlier work.

Data on three compounds can be found in patent US8815260B1, “Treatment of restenosis and stenosis with dasatinib” (University of South Florida, priority 2005, dated 2014).

Like-named read-outs stand apart in the source and are kept apart here.

Chain of PDGFRβ (Q05030 32-1097): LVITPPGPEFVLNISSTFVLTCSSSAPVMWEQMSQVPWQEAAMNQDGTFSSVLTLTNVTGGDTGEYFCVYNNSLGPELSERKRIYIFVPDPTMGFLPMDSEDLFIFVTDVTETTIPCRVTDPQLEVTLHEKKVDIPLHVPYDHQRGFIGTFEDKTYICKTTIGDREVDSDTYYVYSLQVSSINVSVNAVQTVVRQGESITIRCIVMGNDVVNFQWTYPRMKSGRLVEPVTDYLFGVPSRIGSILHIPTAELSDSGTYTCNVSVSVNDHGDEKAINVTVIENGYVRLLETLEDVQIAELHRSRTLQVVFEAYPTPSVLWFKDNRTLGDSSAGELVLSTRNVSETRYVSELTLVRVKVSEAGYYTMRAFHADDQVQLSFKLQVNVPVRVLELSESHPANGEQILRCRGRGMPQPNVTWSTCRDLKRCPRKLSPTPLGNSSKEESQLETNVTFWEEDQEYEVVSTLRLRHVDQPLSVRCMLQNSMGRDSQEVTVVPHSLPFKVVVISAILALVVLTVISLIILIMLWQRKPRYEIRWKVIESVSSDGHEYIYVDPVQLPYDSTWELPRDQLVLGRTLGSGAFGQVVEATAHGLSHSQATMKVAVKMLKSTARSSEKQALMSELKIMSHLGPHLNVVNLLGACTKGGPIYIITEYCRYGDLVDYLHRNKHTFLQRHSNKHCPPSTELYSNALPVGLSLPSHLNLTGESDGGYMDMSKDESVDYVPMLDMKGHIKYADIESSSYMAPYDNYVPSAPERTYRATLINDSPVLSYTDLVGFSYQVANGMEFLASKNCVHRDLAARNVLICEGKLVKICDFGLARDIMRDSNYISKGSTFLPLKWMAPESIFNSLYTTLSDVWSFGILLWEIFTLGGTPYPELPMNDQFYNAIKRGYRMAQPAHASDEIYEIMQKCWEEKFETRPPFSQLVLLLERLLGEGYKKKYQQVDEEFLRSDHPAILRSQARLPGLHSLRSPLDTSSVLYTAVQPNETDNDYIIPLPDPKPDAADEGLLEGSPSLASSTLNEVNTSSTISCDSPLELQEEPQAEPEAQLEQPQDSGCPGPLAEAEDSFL
Chain of IGF-1R (P24062 31-1370): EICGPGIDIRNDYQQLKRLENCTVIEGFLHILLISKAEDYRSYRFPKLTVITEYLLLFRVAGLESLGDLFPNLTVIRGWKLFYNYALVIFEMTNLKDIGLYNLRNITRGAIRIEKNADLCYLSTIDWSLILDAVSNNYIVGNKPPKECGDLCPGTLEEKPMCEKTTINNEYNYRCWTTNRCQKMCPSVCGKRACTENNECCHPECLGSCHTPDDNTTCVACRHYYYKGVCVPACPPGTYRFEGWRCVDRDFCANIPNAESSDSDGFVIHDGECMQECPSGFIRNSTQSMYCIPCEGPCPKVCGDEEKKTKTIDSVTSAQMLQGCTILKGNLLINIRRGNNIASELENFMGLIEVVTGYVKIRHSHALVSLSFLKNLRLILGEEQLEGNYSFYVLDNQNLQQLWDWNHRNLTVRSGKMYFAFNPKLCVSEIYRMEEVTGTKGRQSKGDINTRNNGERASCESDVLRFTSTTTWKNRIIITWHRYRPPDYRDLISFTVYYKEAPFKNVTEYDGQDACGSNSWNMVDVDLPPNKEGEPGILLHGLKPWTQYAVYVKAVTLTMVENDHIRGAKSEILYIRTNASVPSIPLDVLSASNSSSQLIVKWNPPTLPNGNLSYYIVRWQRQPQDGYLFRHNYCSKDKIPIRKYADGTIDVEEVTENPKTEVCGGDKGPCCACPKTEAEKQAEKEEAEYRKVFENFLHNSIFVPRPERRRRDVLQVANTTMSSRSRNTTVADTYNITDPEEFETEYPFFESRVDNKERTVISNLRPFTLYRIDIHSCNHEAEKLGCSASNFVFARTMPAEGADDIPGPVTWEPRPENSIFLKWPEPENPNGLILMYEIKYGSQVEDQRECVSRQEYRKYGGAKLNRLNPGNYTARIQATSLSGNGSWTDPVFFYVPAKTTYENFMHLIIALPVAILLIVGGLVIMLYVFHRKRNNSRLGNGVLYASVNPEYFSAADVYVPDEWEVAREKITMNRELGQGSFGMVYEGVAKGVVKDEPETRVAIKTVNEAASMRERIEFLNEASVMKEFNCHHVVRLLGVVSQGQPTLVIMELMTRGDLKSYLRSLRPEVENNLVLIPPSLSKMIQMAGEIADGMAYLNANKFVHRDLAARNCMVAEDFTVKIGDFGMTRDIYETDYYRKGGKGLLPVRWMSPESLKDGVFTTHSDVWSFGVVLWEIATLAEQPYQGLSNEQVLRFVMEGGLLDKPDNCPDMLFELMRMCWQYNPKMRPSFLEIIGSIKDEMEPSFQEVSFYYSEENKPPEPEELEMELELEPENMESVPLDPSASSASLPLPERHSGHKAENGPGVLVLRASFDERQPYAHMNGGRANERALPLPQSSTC

In the case of `Cc1cc2ncc(-c3ccccc3)nc2cc1C` [AG-1295], the “inhibition of porcine SMC proliferation, nature of the effect” value in the series with porcine SMC is “reversible and not toxic”.
In the case of `Cc1nc(Nc2ncc(C(=O)Nc3c(C)cccc3Cl)s2)cc(N2CCN(CCO)CC2)n1` [BMS-354825, N-(2-chloro-6-methylphenyl)-2-[[6-[4-[(2-hydroxyethyl)-1-piperazinyl]-2-methyl-4-pyrimidinyl]amino]-5-thiazolecarboxamide, monohydrate], the “PDGF-stimulated activation of STAT3, Akt and Erk2 (activation-specific phosphorylation)” value in the series with STAT3, Akt, Erk2 [1] (50 nM, PDGF-BB 5 ng/ml) is listed as “inhibited”. Further, the “percentage of cells in G2 phase” value in the series with A10 cells (16 h (PDGF alone 10.74%, no PDGF 0.99%)) is recorded as 3.75%. Moreover, in the series with A10 cells (16 h (PDGF alone 23.83%, no PDGF 10.4%)), the “percentage of cells in S phase” value was determined as 7.99%. Also, the “percentage of cells in G1 phase” value with A10 cells (16 h (PDGF alone 65.44%, no PDGF 88.65%)) amounted to 88.29%. Besides, the “PDGF-stimulated PDGFRβ tyrosine phosphorylation” value on PDGFRβ (50 nM, PDGF-BB 5 ng/ml, all time points (0-30 min)) is “effectively blocked”. Further, at IGF-1R, the “inhibition of IGF-1R tyrosine phosphorylation” value is “No detectable inhibition”. The Cmax in series [2] (BMS-354825 dosing for CML, oral, read-out: Cmax) was 60 to 120 nM; in series [2] (oral delivery route, 140 mg/day), 30 to 60 ng/mL. The “PDGF-induced further activation of STAT3” value in the series on STAT3, Akt, Erk2 [3] was “blocked”.
In the case of `Cc1ccc(NC(=O)c2ccc(CN3CCN(C)CC3)cc2)cc1Nc1nccc(-c2cccnc2)n1` [imatinib], the “concentration giving complete inhibition of PDGF-stimulated Akt and Erk2 activation” value in the series on STAT3, Akt, Erk2 [1] (PDGF-BB 5 ng/ml 5 min) was 5 µM. Besides, in the series with STAT3, Akt, Erk2 [1] (PDGF-BB 5 ng/ml 5 min, relative to the 5 μM needed for Akt and Erk2), the “decrease in STAT3 tyrosine phosphorylation” value was “appeared at lower concentrations”. Further, at PDGFRβ (parallel experiments, PDGF-BB 5 ng/ml 5 min), the “concentration required for the same level (complete block) of PDGFR inhibition” value was found to be 5 µM. The “concentrations required for inhibition of PDGFR in cell-based assays” value with PDGFR was “micromolar concentrations”.

As a reminder, the Cmax is the maximum level reached in the sampled fluid or tissue.
